Test results as given in patent publication US8293240B2, “Method of treating drug-resistant cancer” (The Regents of the University of Colorado, priority 2004, dated 2012).

Experiments:
[1] = tested on: HL60 MDR human leukemia cells; assay: percent death of HL60 MDR cells (flow cytometry, live versus dead); assay type: cell-based
Procedure: Dot plots as a function of live versus dead cells. The cells were cultured at a concentration of 0.5 to 1 million cells per ml. Cells were untreated or treated with or 2-deoxy-D-glucose and/or etomoxir and/or antibodies to UCP2 and used at dilutions or concentrations as indicated on the figure. The cells were cultured in the presence or absence of etomoxir at 100 micrograms/ml for 24 hours followed by treatment with antibody as indicated for an additional 24 or 48 hours (i.e. totals of 48 hours or 72 hours respectively). Cells were harvested and analyzed by flow cytometry. Each dot on the dot plot represents one cell. Five thousand cells were assessed for forward scatter (FS), as a function of cell size, versus side scatter (SS), as a function of cellular granularity. The upper elipse represents live cells by these criterion and the lower elipse in each dot plot represents the dead cells.
Statistical Analysis, Percents, and Geometric Mean Values Percents. Gating is a tool provided by Cell Quest software and allows for the analysis of a certain population of cells. Gating around both the live and dead cell populations gave a percent of the cell numbers that was in each population. After the gates were drawn, a percent value of dead cells was calculated by taking the number of dead cells divided by the number of total cells and multiplying by one hundred.
HL60 MDR human leukemia cells were cultured as described above under “Materials and Methods”. Cells were untreated or treated with etomoxir, with 2-deoxy-D-glucose, or with a combination of etomoxir and 2-deoxy-D-glucose, at concentrations indicated in FIG. 27 for 24 hours. Cells were harvested and analyzed by flow cytometry.
Referring to FIGS. 31 and 32, HL60 MDR cells, cultured as described in Example 21, were untreated or treated with etomoxir, with 2-deoxy-D-glucose, or with a combination of etomoxir and 2-deoxy-D-glucose, at concentrations indicated in FIG. 31 for 48 hours. Cells were harvested and analyzed by flow cytometry.
Referring to FIGS. 35 and 36, HL60 MDR cells, cultured as described in Example 21, were treated with anti-UCP2 antibody and otherwise untreated or treated simultaneously with etomoxir, 2-deoxy-D-glucose, or both, at concentrations indicated in FIG. 35 for 48 hours. Cells were harvested and analyzed by flow cytometry.

[2] = tested on: human leukemia RU937 cells; assay: mitochondrial membrane potential (MitoTracker), RU937; assay type: cell-based; conditions: RU937, 24 hours of incubation, FIG. 13
Procedure: (§1) Flow Cytometry. Cells were harvested, counted, and resuspended at 10^6 cells/100 μl of PBS containing 2.5% fetal calf serum in preparation for flow cytometric analysis. Cells were stained for intracellular H202 using 6-carboxy-2′,7′-dichlorodihydrofluorescein diacetate (DCF-DA, Molecular Probes, Eugene, Oreg.). Briefly, cells were incubated at 37° with 1 mM DCF-DA for 20 minutes, washed twice in PBS containing 2.5% fetal calf serum and analyzed flow cytometrically. Mitochondrial membrane potential was assessed using Mitotracker Red (CM-H2XROS, Molecular Probes, Eugene, Oreg.). The cells were resuspended in PBS containing 2.5% fetal calf serum containing a final concentration of 0.5 micromolar Mitotracker dye. The cells were incubated at 37° for 20 minutes, washed twice in PBS containing 2.5% fetal calf serum and analyzed flow cytometrically. Data were acquired on a Coulter Elite Epics or Excel flow cytometer (Coulter, Hialeah, Fla.) and analyzed with CellQuest software, (Becton Dickinson, San Jose, Calif.). […] Each sample population was classified for cell size (forward scatter) and complexity (side scatter), gated on a population of interest and evaluated using 5,000 cells. […]
The effects of etomoxir on human leukemia RU937 cells was determined. […]

L1210 cells = assay: DCFDA staining (reactive intermediates), L1210; assay type: cell-based; conditions: L1210, 24 hours of incubation, FIG. 12A
Procedure: as §1, with “The cells were resuspended in PBS containing 2.5% fetal calf serum containing a final concentration of 0.5 micromolar Mitotracker dye.” left out
We measured the effects of etomoxir on metabolism by measuring mitochondrial membrane potential with a fluorescent dye (Mitotracker Red, Molecular Probes, Eugene, Oreg.) which fluoresces as a function of mitochondrial potential. […]

B16F1 melanoma cells = assay: mitochondrial membrane potential (Mitotracker Red) in B16F1 melanoma cells; assay type: cell-based, mouse; conditions: B16F1, 48 hours, FIG. 20
Procedure: Metabolic Activity Assay. Cells were prepared as previously described. The specific metabolic dye was added and mixed into the cell suspension. This plate was then placed into the 37° incubator for a 20-minute incubation. After incubation, the cells were centrifuged at 300×g for 5 minutes, and the supernatant was removed. The cells were then washed once with PBS/2.5% FBS and transferred into flow cytometric tubes containing 500 μL of PBS/2.5% FBS for analysis.
MitoTracker Red CM-H2XROS (Molecular Probes). One vial of MitoTracker Red provides 10 tests and contains 50 μg. This is unstable and can't be stored. Therefore, when each vial was opened, 43 μL of Dimethysulfoxide (DMSO) were added. […]
B16F1 melanoma cells were cultured at a concentration of 0.5 to 1 million cells per ml. Cells were harvested and analyzed by flow cytometry. […] Five thousand cells were assessed for forward scatter (FS), as a function of cell size, versus side scatter (SS), as a function of cellular granularity. […]
B16F1 melanoma cells of Example 12 were untreated or treated with etomoxir at the indicated concentrations for 48 hours. Cells were harvested, stained with Mitotracker Red (Molecular Probes) as described in Materials and Methods, and analyzed by flow cytometry. The value of Mitotracker Red was then calculated as described in Materials and Methods.

[3] = tested on: RD cells (rhabdomyosarcoma cells-not drug resistant); assay: percent death of RD cells (flow cytometry, live versus dead); assay type: cell-based
Procedure: The cells were cultured at a concentration of 0.5 to 1 million cells per ml. Cells were untreated or treated with or 2-deoxy-D-glucose and/or etomoxir and/or antibodies to UCP2 and used at dilutions or concentrations as indicated on the figure. The cells were cultured in the presence or absence of etomoxir at 100 micrograms/ml for 24 hours followed by treatment with antibody as indicated for an additional 24 or 48 hours (i.e. totals of 48 hours or 72 hours respectively). Cells were harvested and analyzed by flow cytometry. Each dot on the dot plot represents one cell. Five thousand cells were assessed for forward scatter (FS), as a function of cell size, versus side scatter (SS), as a function of cellular granularity. The upper elipse represents live cells by these criterion and the lower elipse in each dot plot represents the dead cells.
Gating is a tool provided by Cell Quest software and allows for the analysis of a certain population of cells. Gating around both the live and dead cell populations gave a percent of the cell numbers that was in each population. After the gates were drawn, a percent value of dead cells was calculated by taking the number of dead cells divided by the number of total cells and multiplying by one hundred.
Referring to FIGS. 29 and 30, RD cells (rhabdomyosarcoma cells-not drug resistant), cultured as described above under “Materials and Methods” were untreated or treated with etomoxir, with 2-deoxy-D-glucose, or with a combination of etomoxir and 2-deoxy-D-glucose, at concentrations indicated in FIG. 29 for 24 hours. Cells were harvested and analyzed by flow cytometry.
Referring to FIGS. 33 and 34, RD cells, cultured as described in Example 22, were untreated or treated with etomoxir, with 2-deoxy-D-glucose, or with a combination of etomoxir and 2-deoxy-D-glucose, at concentrations indicated in FIG. 33 for 48 hours. Cells were harvested and analyzed by flow cytometry.
Referring to FIGS. 37 and 38, RD cells, cultured as described in Example 22, were treated with anti-UCP2 antibody and otherwise untreated or treated simultaneously with etomoxir, 2-deoxy-D-glucose, or both, at concentrations indicated in FIG. 37 for 48 hours. Cells were harvested and analyzed by flow cytometry.

SMILES: CCOC(=O)C1(CCCCCCOc2ccc(Cl)cc2)CO1 (stereo not shown) [etomoxir, 2-(6-(4-chlorophenoxy)-hexyl)-oxirane-2-carboxylic acid ethyl ester]
- percent of cell deaths ([1]; HL60 MDR cells after 24 hours): 11%
- percent of cell deaths ([1]; HL60 MDR cells after 48 hours): 14%
- mitochondrial membrane potential (MitoTracker) [2]: increased the levels of mitochondrial membrane potential
- free radicals (reactive intermediates), DCFDA staining (L1210 cells): increase in free radicals
- mitochondrial membrane potential as measured by Mitotracker Red (B16F1 melanoma cells): increase in mitochondrial membrane potential
- percent of cell deaths ([3]; RD cells after 24 hours): 57%
- percent of cell deaths ([3]; RD cells after 48 hours): 64%
